# Article PMC6749364, “Pharmacokinetics and Tissue Distribution of Alnustone in Rats after Intravenous Administration by Liquid Chromatography-Mass Spectrometry” (Molecules, 2019)
# Columns and labels:
# [1] = Stability of alnustone in rat plasma and tissue homogenates (QC samples); type: in vitro ADME, rats; conditions: in % (unit assumed)
# Description: The calibration standards were prepared by spiking a certain volume of blank plasma or blank tissue homogenates with appropriate amounts of working solutions to yield a final concentration range from 1 to 2000 ng/mL. The effective concentrations of alnustone were 1, 5, 10, 40, 160, 200, 800, 2000 ng/mL for the plasma samples and tissue homogenates samples (heart, liver, spleen, lung, kidney, brain, stomach, intestine). […]
# The stability tests involved the following four conditions. The short-term stability study was examined by analyzing samples at room temperature for 4 h. The long-term stability study was performed by analyzing samples stored at −75 °C for 1 month. For the freeze-thaw stability study, the samples were analyzed after three freeze/thaw cycles (−75 °C to 25 °C). The post-preparative storage stability was assessed by analyzing the samples left in autosampler vials at 4 °C for 24 h. The stability analysis was performed using three aliquots of each QC samples at three different concentrations. The samples were considered stable if the assay values were within the acceptable limits of accuracy (±15% RE) and precision (≤15% RSD).
# neuraminidase = tested on: neuraminidase; parameters: method as in PMID 20014777; conditions: cited from earlier work
# [2] = obtained by our previous pharmacological experiment; cited from earlier work
# [3] = tested on: Bel-7402 (human hepatocellular carcinoma cells); parameters: method as in earlier work; conditions: Bel-7402 cell line; cited from earlier work
# [4] = tested on: LO-2 (human normal liver cells); parameters: method as in earlier work; conditions: LO-2 cell line; cited from earlier work
# [5] = Brain homogenate, QC 1600 ng/mL
# [6] = Heart homogenate, QC 1600 ng/mL
# [7] = Intestine homogenate, QC 1 ng/mL
# [8] = Intestine homogenate, QC 5 ng/mL
# [9] = Intestine homogenate, QC 100 ng/mL
# [10] = Intestine homogenate, QC 1600 ng/mL
# [11] = Kidney homogenate, QC 100 ng/mL
# [12] = Kidney homogenate, QC 1600 ng/mL
# [13] = Liver homogenate, QC 1600 ng/mL
# [14] = Spleen homogenate, QC 100 ng/mL
# [15] = Spleen homogenate, QC 1600 ng/mL
compound,measurement,setting,value
"O=C(/C=C/C=C/c1ccccc1)CCc1ccccc1 [alnustone, Alnustone]",Stability: Autosampler 4 °C for 24 h,"[1]; Brain homogenate, QC 1 ng/mL",109.2 ± 6.7
same,Stability: Short-Term (at Room Temperature for 4 h),"[1]; Brain homogenate, QC 1 ng/mL",110.6 ± 5.8
same,Stability: Storage at −75°C for 30 d,"[1]; Brain homogenate, QC 1 ng/mL",103.8 ± 4.1
same,Stability: Three Freeze-Thraw Cycles,"[1]; Brain homogenate, QC 1 ng/mL",86.5 ± 6.1
same,Stability: Autosampler 4 °C for 24 h,"[1]; Brain homogenate, QC 5 ng/mL",104.9 ± 7.0
same,Stability: Short-Term (at Room Temperature for 4 h),"[1]; Brain homogenate, QC 5 ng/mL",109.0± 4.4
same,Stability: Storage at −75°C for 30 d,"[1]; Brain homogenate, QC 5 ng/mL",108.9 ± 3.8
same,Stability: Three Freeze-Thraw Cycles,"[1]; Brain homogenate, QC 5 ng/mL",89.2 ± 4.6
same,Stability: Autosampler 4 °C for 24 h,"[1]; Brain homogenate, QC 100 ng/mL",95.4 ± 5.7
same,Stability: Short-Term (at Room Temperature for 4 h),"[1]; Brain homogenate, QC 100 ng/mL",99.3 ± 7.5
same,Stability: Storage at −75°C for 30 d,"[1]; Brain homogenate, QC 100 ng/mL",90.2 ± 7.4
same,Stability: Three Freeze-Thraw Cycles,"[1]; Brain homogenate, QC 100 ng/mL",98.0 ± 8.1
same,Stability: Autosampler 4 °C for 24 h,[1]; [5],104.2 ± 4.9
same,Stability: Short-Term (at Room Temperature for 4 h),[1]; [5],96.3 ± 7.4
same,Stability: Storage at −75°C for 30 d,[1]; [5],112.3 ± 8.9
same,Stability: Three Freeze-Thraw Cycles,[1]; [5],110.2 ± 6.8
same,Stability: Autosampler 4 °C for 24 h,"[1]; Heart homogenate, QC 100 ng/mL",89.0 ± 3.4
same,Stability: Storage at −75°C for 30 d,"[1]; Heart homogenate, QC 100 ng/mL",112.4 ± 4.0
same,Stability: Three Freeze-Thraw Cycles,"[1]; Heart homogenate, QC 100 ng/mL",104.8 ± 6.6
same,Stability: Autosampler 4 °C for 24 h,[1]; [6],90.3 ± 5.2
same,Stability: Short-Term (at Room Temperature for 4 h),[1]; [6],91.8 ± 5.8
same,Stability: Storage at −75°C for 30 d,[1]; [6],95.6 ± 5.4
same,Stability: Three Freeze-Thraw Cycles,[1]; [6],95.3 ± 9.0
same,Stability: Autosampler 4 °C for 24 h,[1]; [7],90.0 ± 5.7
same,Stability: Short-Term (at Room Temperature for 4 h),[1]; [7],89.6 ± 8.1
same,Stability: Storage at −75°C for 30 d,[1]; [7],96.5 ± 5.7
same,Stability: Three Freeze-Thraw Cycles,[1]; [7],113.7 ± 8.7
same,Stability: Autosampler 4 °C for 24 h,[1]; [8],90.9 ± 5.0
same,Stability: Short-Term (at Room Temperature for 4 h),[1]; [8],95.8 ± 7.7
same,Stability: Storage at −75°C for 30 d,[1]; [8],92.6 ± 3.7
same,Stability: Three Freeze-Thraw Cycles,[1]; [8],108.7 ± 9.4
same,Stability: Autosampler 4 °C for 24 h,[1]; [9],98.0 ± 4.9
same,Stability: Short-Term (at Room Temperature for 4 h),[1]; [9],95.3 ± 6.7
same,Stability: Storage at −75°C for 30 d,[1]; [9],114.4 ± 4.9
same,Stability: Three Freeze-Thraw Cycles,[1]; [9],96.9 ± 3.8
same,Stability: Autosampler 4 °C for 24 h,[1]; [10],103.0 ± 8.4
same,Stability: Short-Term (at Room Temperature for 4 h),[1]; [10],105.9 ± 7.1
same,Stability: Storage at −75°C for 30 d,[1]; [10],107.0 ± 4.3
same,Stability: Three Freeze-Thraw Cycles,[1]; [10],113.6 ± 2.8
same,Stability: Autosampler 4 °C for 24 h,"[1]; Kidney homogenate, QC 1 ng/mL",116.5 ± 8.0
same,Stability: Short-Term (at Room Temperature for 4 h),"[1]; Kidney homogenate, QC 1 ng/mL",107.8 ± 7.5
same,Stability: Storage at −75°C for 30 d,"[1]; Kidney homogenate, QC 1 ng/mL",89.8 ± 8.1
same,Stability: Three Freeze-Thraw Cycles,"[1]; Kidney homogenate, QC 1 ng/mL",93.7 ± 7.0
same,Stability: Autosampler 4 °C for 24 h,"[1]; Kidney homogenate, QC 5 ng/mL",114.1 ± 7.4
same,Stability: Short-Term (at Room Temperature for 4 h),"[1]; Kidney homogenate, QC 5 ng/mL",110.7 ± 6.6
same,Stability: Storage at −75°C for 30 d,"[1]; Kidney homogenate, QC 5 ng/mL",88.5 ± 6.4
same,Stability: Three Freeze-Thraw Cycles,"[1]; Kidney homogenate, QC 5 ng/mL",95.7 ± 5.7
same,Stability: Autosampler 4 °C for 24 h,[1]; [11],108.0 ± 5.7
same,Stability: Short-Term (at Room Temperature for 4 h),[1]; [11],109.7 ± 8.3
same,Stability: Storage at −75°C for 30 d,[1]; [11],111.0 ± 7.5
same,Stability: Three Freeze-Thraw Cycles,[1]; [11],90.9 ± 7.0
same,Stability: Autosampler 4 °C for 24 h,[1]; [12],95.9 ± 6.0
same,Stability: Short-Term (at Room Temperature for 4 h),[1]; [12],100.7 ± 7.0
same,Stability: Storage at −75°C for 30 d,[1]; [12],100.5 ± 10.6
same,Stability: Three Freeze-Thraw Cycles,[1]; [12],112.5 ± 5.2
same,Stability: Autosampler 4 °C for 24 h,"[1]; Liver homogenate, QC 1 ng/mL",93.1 ± 5.7
same,Stability: Short-Term (at Room Temperature for 4 h),"[1]; Liver homogenate, QC 1 ng/mL",98.8 ± 6.8
same,Stability: Storage at −75°C for 30 d,"[1]; Liver homogenate, QC 1 ng/mL",111.5 ± 6.9
same,Stability: Three Freeze-Thraw Cycles,"[1]; Liver homogenate, QC 1 ng/mL",101.5 ± 10.1
same,Stability: Autosampler 4 °C for 24 h,"[1]; Liver homogenate, QC 5 ng/mL",95.3 ± 3.2
same,Stability: Short-Term (at Room Temperature for 4 h),"[1]; Liver homogenate, QC 5 ng/mL",95.4 ± 5.8
same,Stability: Storage at −75°C for 30 d,"[1]; Liver homogenate, QC 5 ng/mL",106.5 ± 10.1
same,Stability: Three Freeze-Thraw Cycles,"[1]; Liver homogenate, QC 5 ng/mL",98.8 ± 9.9
same,Stability: Autosampler 4 °C for 24 h,"[1]; Liver homogenate, QC 100 ng/mL",101.3 ± 5.6
same,Stability: Short-Term (at Room Temperature for 4 h),"[1]; Liver homogenate, QC 100 ng/mL",111.0 ± 4.9
same,Stability: Storage at −75°C for 30 d,"[1]; Liver homogenate, QC 100 ng/mL",105.4 ± 7.2
same,Stability: Three Freeze-Thraw Cycles,"[1]; Liver homogenate, QC 100 ng/mL",108.4 ± 7.8
same,Stability: Autosampler 4 °C for 24 h,[1]; [13],94.8 ± 7.7
same,Stability: Short-Term (at Room Temperature for 4 h),[1]; [13],106.4 ± 6.0
same,Stability: Storage at −75°C for 30 d,[1]; [13],97.7 ± 6.8
same,Stability: Three Freeze-Thraw Cycles,[1]; [13],98.3 ± 6.3
same,Stability: Autosampler 4 °C for 24 h,"[1]; Lung homogenate, QC 1 ng/mL",105.8 ± 7.0
same,Stability: Short-Term (at Room Temperature for 4 h),"[1]; Lung homogenate, QC 1 ng/mL",89.5 ± 7.6
same,Stability: Storage at −75°C for 30 d,"[1]; Lung homogenate, QC 1 ng/mL",103.4 ± 8.7
same,Stability: Three Freeze-Thraw Cycles,"[1]; Lung homogenate, QC 1 ng/mL",108.2 ± 9.5
same,Stability: Autosampler 4 °C for 24 h,"[1]; Lung homogenate, QC 5 ng/mL",103.4 ± 7.1
same,Stability: Short-Term (at Room Temperature for 4 h),"[1]; Lung homogenate, QC 5 ng/mL",92.4 ± 6.4
same,Stability: Storage at −75°C for 30 d,"[1]; Lung homogenate, QC 5 ng/mL",93.0 ± 9.6
same,Stability: Three Freeze-Thraw Cycles,"[1]; Lung homogenate, QC 5 ng/mL",105.8 ± 8.7
same,Stability: Autosampler 4 °C for 24 h,"[1]; Lung homogenate, QC 100 ng/mL",98.4 ± 5.4
same,Stability: Short-Term (at Room Temperature for 4 h),"[1]; Lung homogenate, QC 100 ng/mL",106.4 ± 8.6
same,Stability: Storage at −75°C for 30 d,"[1]; Lung homogenate, QC 100 ng/mL",101.0 ± 7.5
same,Stability: Three Freeze-Thraw Cycles,"[1]; Lung homogenate, QC 100 ng/mL",94.4 ± 2.6
same,Stability: Autosampler 4 °C for 24 h,"[1]; Lung homogenate, QC 1600 ng/mL",100.6 ± 9.7
same,Stability: Short-Term (at Room Temperature for 4 h),"[1]; Lung homogenate, QC 1600 ng/mL",91.2 ± 6.8
same,Stability: Storage at −75°C for 30 d,"[1]; Lung homogenate, QC 1600 ng/mL",92.3 ± 6.3
same,Stability: Three Freeze-Thraw Cycles,"[1]; Lung homogenate, QC 1600 ng/mL",93.8 ± 4.6
same,Stability: Autosampler 4 °C for 24 h,"[1]; Spleen homogenate, QC 1 ng/mL",108.0 ± 6.0
same,Stability: Short-Term (at Room Temperature for 4 h),"[1]; Spleen homogenate, QC 1 ng/mL",108.5± 6.4
same,Stability: Storage at −75°C for 30 d,"[1]; Spleen homogenate, QC 1 ng/mL",102.3 ± 4.9
same,Stability: Three Freeze-Thraw Cycles,"[1]; Spleen homogenate, QC 1 ng/mL",101.2 ± 7.4
same,Stability: Autosampler 4 °C for 24 h,"[1]; Spleen homogenate, QC 5 ng/mL",101.8 ± 4.3
same,Stability: Short-Term (at Room Temperature for 4 h),"[1]; Spleen homogenate, QC 5 ng/mL",114.7 ± 5.8
same,Stability: Storage at −75°C for 30 d,"[1]; Spleen homogenate, QC 5 ng/mL",98.1 ± 3.9
same,Stability: Three Freeze-Thraw Cycles,"[1]; Spleen homogenate, QC 5 ng/mL",106.2 ± 6.9
same,Stability: Autosampler 4 °C for 24 h,[1]; [14],92.9 ± 6.5
same,Stability: Short-Term (at Room Temperature for 4 h),[1]; [14],107.5 ± 8.9
same,Stability: Storage at −75°C for 30 d,[1]; [14],114.3 ± 6.6
same,Stability: Three Freeze-Thraw Cycles,[1]; [14],105.3 ± 3.1
same,Stability: Autosampler 4 °C for 24 h,[1]; [15],102.1 ± 9.3
same,Stability: Short-Term (at Room Temperature for 4 h),[1]; [15],104.4 ± 6.1
same,Stability: Storage at −75°C for 30 d,[1]; [15],104.0 ± 3.2
same,Stability: Three Freeze-Thraw Cycles,[1]; [15],92.9 ± 7.6
same,neuraminidase inhibitory activity,neuraminidase,showed neuraminidase inhibitory activity
same,LD50,[2],200 mg/kg
same,antitumor activity in vitro,[3],significant antitumor activity
same,antitumor activity in vitro,[4],significant antitumor activity
